Measurements reported in PubChem BioAssay (NCI).
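Cells were grown in 96-well plates and exposed to each compound for 48 hours at five concentrations; endpoints were interpolated linearly between bracketing concentrations, or set to the highest concentration if not reached. Here, GI50 denotes the concentration required for 50% inhibition of growth. At the TGI there is no net growth.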

System: MALME-3M melanoma
Assay: inhibition of tumour cell growth, NCI panel, 48 h

`O=C1[C@@H]2C(c3ccccc3F)=NO[C@@H]2C(=O)N1c1ccc(Cc2ccc(N3C(=O)[C@H]4C(c5ccccc5F)=NO[C@H]4C3=O)cc2)cc1` and `CSC(C1c2ccccc2N(c2ccc(C)cc2)c2[nH]c(=O)n(C)c(=O)c21)S(=O)(=O)c1ccc(C)cc1` (stereo unspecified) cannot be ordered by TGI: > 100 µM for the first, > 100 µM for the second.

`C=CCc1ccc(Oc2cc(CC=C)c3c(c2O)O[C@@H](CO)[C@H]3c2ccc(O)c(-c3cc(CC=C)ccc3O)c2)cc1` and `Clc1ccc2c(c1)-c1c3c(nn1-c1ccccc1)-c1ccccc1SC3O2` (stereo unspecified) cannot be ordered by TGI: > 100 µM for the first, > 100 µM for the second.

`Cn1c2ccccc2c(=O)c2ccc(Cl)cc21` and `Cc1c(C(=O)/C=C/c2ccccc2)[n+](=O)c2ccccc2n1[O-]` cannot be ordered by TGI: > 10 µM for the first, 33.6 µM for the second.

Compared with `CC(CO)(CO)NCCCCn1ccc2c1C(=O)c1c(c(O)c3ccccc3c1O)C2=O`, `CC(C)C[C@H](NC(=O)/C=C/Cn1ccc2ccccc2c1=O)B(O)O` is 3.1-fold higher in TGI: 7.38 µM for the first, 23 µM for the second.

`O=C(NCO)NCOCn1c(=O)n(CO)c(=O)n(CO)c1=O` and `CCCSc1nc(COC(=O)NC)c(COC(=O)NC)n1C` cannot be ordered by TGI: > 74 µM for the first, > 100 µM for the second.

`O=C(O)C1C(Br)(c2ccccc2)C1(Br)c1ccccc1` (stereo unspecified) and `O=C(c1ccccc1)C1OC12C(=O)Nc1ccccc12` (stereo unspecified) cannot be ordered by TGI: > 100 µM for the first, > 100 µM for the second.

Compared with `COc1ccc(CCN2COc3c([C@@H](C)CCC=C(C)C)ccc(C)c3C2)cc1OC`, `COc1ccc(OC)c2c(C(=O)O)c(Cc3ccccc3)ccc12` is higher in TGI: 3.18 µM for the first, > 100 µM for the second.

`O=C1OC2CCCC[C@@H]2C2C[C@]34CCCCC3[C@@H](C(=O)O4)C12` (stereo partly specified) and `c1ccc(C2Nc3ccccc3C3OCCCC23)cc1` (stereo unspecified) cannot be ordered by TGI: > 100 µM for the first, > 100 µM for the second.

`O=C1CCC(O)=C1N=Nc1ccccc1` and `O=C1CSC(/C(=N/Nc2ccccc2)c2nc3ccccc3[nH]2)=N1` cannot be ordered by TGI: > 100 µM for the first, > 100 µM for the second.

Going from `CCN(CC)c1ccc(N=Nc2ccc(-c3nc4ccc[n+](C)c4s3)cc2)cc1` to `CN(CCC#N)c1ccc(/C=C(\C#N)c2ccc(Br)cc2)cc1`, the TGI rises from 26.3 µM to > 100 µM.

Compared with `CN(C)CCN1C(=O)c2ccc3c4c(ccc(c24)C1=O)C(=O)N(CCN=C=S)C3=O`, `O=C1/C(=C/c2cccc([N+](=O)[O-])c2)COc2ccc(Br)cc21` is higher in TGI: 0.224 µM for the first, > 100 µM for the second.

`COc1ccc2nc(NC(=O)C(=O)C(C#N)c3ccc([N+](=O)[O-])cc3)sc2c1` (stereo unspecified) and `O=C(O)[C@H](NS(=O)(=O)c1ccc([N+](=O)[O-])cc1)c1ccccc1` cannot be ordered by TGI: > 100 µM for the first, > 100 µM for the second.

First: COc1cccc2c(=O)c3c(sc12)c(N1CCNCC1)nc1ccccc13
Second: COc1cc(/C=C(\C#N)c2ccccc2)cc(OC)c1
The TGI of the first is lower: 3.24 µM for the first, > 100 µM for the second.

First: CCOC(=O)NC(=O)c1cn(CCCOC(=O)CCCCCCCCCCC(=O)OCCCn2cc(C(=O)NC(=O)OCC)c(=O)[nH]c2=O)c(=O)[nH]c1=O
Second: CCCCCCCCCCCCCCCCCCOc1ccccc1CC(=O)OCC[N+]1(C)CCCC1
The TGI of the first is higher: > 100 µM for the first, 5.22 µM for the second.

Going from `N#Cc1cccnc1Cl` to `COc1cc(NC(C)CCCN)c2nccc(C)c2c1` (stereo unspecified), the TGI falls from > 100 µM to 35.6 µM.

Compared with `CCCCCCCCCCCC(=O)OCC1OC(OC)C(NC(=O)N(CCCl)N=O)C(O)C1O` (stereo unspecified), `C=CC/C=C/C/C=C/CCCCCCCc1cccc(O)c1C(=O)O` is higher in TGI: 30.6 µM for the first, > 100 µM for the second.

Going from `O=C(Nc1c(Cl)cc([N+](=O)[O-])cc1Cl)C(=O)C(C1OC(=O)c2ccccc21)[N+](=O)[O-]` (stereo unspecified) to `CC(=O)C(=CN1CCN(C(=O)c2ccco2)C1=S)C(C)=O`, the TGI falls from > 100 µM to 47.9 µM.

Work on `C1C[OH+]CC[OH+]CC[OH+]CC[OH+]CC[OH+]1.[Cl-].[V]` yielded a TGI of 32 µM.

Going from `CC(CO)(CO)NCCCCn1ccc2c1C(=O)c1c(c(O)c3ccccc3c1O)C2=O` to `CC(C)C[C@H](NC(=O)/C=C/Cn1ccc2ccccc2c1=O)B(O)O`, the GI50 rises from 1.69 µM to 3.82 µM (2.3-fold).

`COc1ccc(CCN2COc3c([C@@H](C)CCC=C(C)C)ccc(C)c3C2)cc1OC` and `COc1cccc2c(=O)c3c(sc12)c(N1CCNCC1)nc1ccccc13` are within 1.5-fold of each other in GI50: 1.53 µM for the first, 1.65 µM for the second.

Compared with `CN(C)CCN1C(=O)c2ccc3c4c(ccc(c24)C1=O)C(=O)N(CCN=C=S)C3=O`, `CN(CCC#N)c1ccc(/C=C(\C#N)c2ccc(Br)cc2)cc1` is higher in GI50: 0.0747 µM for the first, > 100 µM for the second.

Compared with `C1C[OH+]CC[OH+]CC[OH+]CC[OH+]CC[OH+]1.[Cl-].[V]`, `CCCCCCCCCCCCCCCCCCOc1ccccc1CC(=O)OCC[N+]1(C)CCCC1` is 6.4-fold lower in GI50: 13.4 µM for the first, 2.08 µM for the second.

For `CC(=O)C(=CN1CCN(C(=O)c2ccco2)C1=S)C(C)=O`, the GI50 was 20.7 µM.

System: COLO 205 colon
Assay: inhibition of tumour cell growth, NCI panel, 48 h

`O=C1[C@@H]2C(c3ccccc3F)=NO[C@@H]2C(=O)N1c1ccc(Cc2ccc(N3C(=O)[C@H]4C(c5ccccc5F)=NO[C@H]4C3=O)cc2)cc1` and `Clc1ccc2c(c1)-c1c3c(nn1-c1ccccc1)-c1ccccc1SC3O2` (stereo unspecified) cannot be ordered by TGI: > 100 µM for the first, > 100 µM for the second.

Compared with `C=CCc1ccc(Oc2cc(CC=C)c3c(c2O)O[C@@H](CO)[C@H]3c2ccc(O)c(-c3cc(CC=C)ccc3O)c2)cc1`, `CC(CO)(CO)NCCCCn1ccc2c1C(=O)c1c(c(O)c3ccccc3c1O)C2=O` is lower in TGI: > 100 µM for the first, 31.3 µM for the second.

`Cn1c2ccccc2c(=O)c2ccc(Cl)cc21` and `O=C(NCO)NCOCn1c(=O)n(CO)c(=O)n(CO)c1=O` cannot be ordered by TGI: > 10 µM for the first, > 71.8 µM for the second.

Work on `CC(CO)(CO)NCCCCn1ccc2c1C(=O)c1c(c(O)c3ccccc3c1O)C2=O` yielded a GI50 of 3.01 µM.
